Data from patent publication US8148392B2, “2-indolyl imidazo [4,5-d] phenanthroline derivatives and their use in the treatment of cancer” (Lorus Therapeutics Inc., priority 2005, dated 2012).
Entries after “also recorded” stand apart in the source; their conditions may differ.

Assays:
[1] = test system: MOLT-4 leukemia cell line; assay: NCI DTP in vitro screen, MOLT-4; format: cell-based; conditions: Homo sapiens
Description: (§1) For example, the following methodology, which is currently employed by the NCI, can be used to assess the GI50 of a candidate compound of Formula I in the selected cancer cell lines. Briefly, cell suspensions are diluted (5000-40,000 cells per well) and 100 μL of the diluted cell suspension is added into 96-well microtiter plates. Inoculates are allowed a preincubation period of 24 h at 37° C. for stabilization. Dilutions at twice the intended test concentration of the candidate compound are added at time zero in 100 μL aliquots to the microtiter plate wells. Test compounds are generally evaluated at five 10-fold dilutions. In routine testing, the highest well concentration is usually 10E-4 M, but this may be adjusted depending on the compound being tested. […] The cells are then assayed by using the sulforhodamine B assay (see, for example, Skehan, P., et al. (1990) JNCI, J. Natl. Cancer Inst. 82, 1107-1112; and Chen, S. F., et al. (1990) Proc. Am. Assoc. Cancer Res. 31, A2644) employing a plate reader which can be used to read the optical densities.
(§2) Compounds 2 and 3 were evaluated for their antiproliferative effects in a panel of 60 human cancer cell lines as part of the in vitro anticancer screening services provided by the DTP (Developmental Therapeutics Program) of the US National Cancer Institute (NCI).

[2] = test system: CCRF-CEM leukemia cell line; assay: NCI DTP in vitro screen, CCRF-CEM; format: cell-based; conditions: Homo sapiens
Description: as §1, §2

[3] = test system: 12 human tumour cell lines; assay: Hollow fiber assay; format: in vivo, athymic mice; conditions: for net cell kill: cell lines with net cell kill
Description: For example, the in vivo activity of candidate compounds can also be tested using the Hollow Fiber Assay (Hollingshead, M., et al., (1995) Life Sciences 57:131-141; and Decker et al., Eur. J. of Cancer 40: 821-826 (2004)). In this assay, cells growing in hollow fibers (polyvinylidine fluoride, PVDF) are implanted in various body compartments of mice. A standard panel of 12 tumour cell lines can be used for the hollow fiber screening of candidate compounds which have shown activity in vitro. These cell lines may include NCI-H23, NCI-H522, MDA-MB-231, MDA-MB-435, SW-620, COLO 205, LOX-IMVI, UACC-62, OVCAR-3, OVCAR-5, U251 and SF-295. In addition, alternate lines such as those described in the above in vitro section can be used for specialized testing of compounds. The cell lines are cultivated according to standard protocols, and fibers are prepared by flushing cells into the PVDF fibers and sealing them at 2 cm intervals. The samples generated from these seals are placed into tissue culture medium and incubated at 37° C. in 5% CO2 for 24 to 48 hours prior to implantation. A total of 3 different tumour lines are prepared for each experiment so that each mouse receives 3 intraperitoneal implants (1 of each tumour line) and 3 subcutaneous implants (1 of each tumour line). On the day of implantation, samples of each tumour cell line preparation are quantitated for viable cell mass by, for example, a stable endpoint MTT assay, so that the time zero cell mass is known. Mice are treated with experimental agents starting on day 3 or 4 following fiber implantation and continuing daily for 4 days. Each agent is administered by intraperitoneal injection at 2 dose levels. The fibers are collected from the mice on the day following the fourth compound treatment and subjected to the stable endpoint MTT assay. The optical density of each sample is determined spectrophotometrically at 540 nm and the mean of each treatment group is calculated. The percent net growth for each cell line in each treatment group is calculated and compared to the percent net growth in the vehicle treated controls. A 50% or greater reduction in percent net growth in the treated samples compared to the vehicle control samples is considered a positive result. Each positive result is given a score of […] and all of the scores are totaled for a given compound. The maximum possible score for an agent is 96 (12 cell lines×2 sites×2 dose levels×2 [score]).
A candidate compound that is screened initially in the hollow fiber assay may subsequently be tested in a xenograft model if it has a combined ip+sc score of 20 or greater, a sc score of 8 or greater, or produces cell kill of any cell line at either dose level evaluated. This scoring system has been validated by DCTDC statisticians in CTEP to represent a level of detection expected to score current “standard” agents as active.
The in vivo efficacy of compounds according to Formula I was tested by determining the efficacy of compound 3 in the hollow fiber assay. This assay is described in Decker et al., Eur. J. of Cancer 40: 821-826 (2004), and was carried out by implanting 12 human tumour cell lines (Breast; MDA-MB-231, MDA-MB-435. Glioma; U251, SF-295. Ovarian; OVCAR-3, OVCAR-5. Colon; COLO-205, SW-620. Melanoma; LOX-IMVI, UACC-62 and Lung; NCI-H23, NCI-H522) into athymic mice as follows. Cell cultures were cultivated in RPMI-1640 containing 10% FBS and 2 mM glutamine. […]

Cc1[nH]c2ccccc2c1-c1nc2c3cccnc3c3ncccc3c2[nH]1 [Compound 3]
GI50 [1]: 16 nM | GI50 [2]: 30 nM | ip score ([3]; 2 dosages, 4 days treatment): 22 | sc score ([3]; 2 dosages, 4 days treatment): 10 | net cell kill [3]: positive cell killing; also recorded: one or more | net cell kill ([3]; listed as compound 3): positive cell kill | total score ([3]; ip + sc, maximum of 96): 32
